# Source: US20250262225A1, “COMPOSITION FOR TREATMENT OF COVID-19 COMPRISING TAURODEOXYCHOLIC ACID OR PHARMACEUTICALLY ACCEPTABLE SALT THEREOF AS ACTIVE INGREDIENT” (SHAPERON INC., priority 2021, published 2025)
# How the values were obtained:
# [1] = half-life estimate from non-clinical data; conditions: calculated based on estimates made from non-clinical data
# mBMDM cells = assay: intracellular cAMP concentration in LPS-stimulated mBMDM (chemiluminescent analysis); format: cell-based, mouse; conditions: 100 ng/ml LPS and 400 ng/ml TDCA simultaneously for 30 minutes; FIG. 1A
# Procedure: Specifically, the bone marrow extracted from C57BL/6N mouse was differentiated in RPMI medium supplemented with 10% FBS, 100 U/ml penicillin streptomycin, 55 μM 2-mercaptoethanol, and 10 ng/ml recombinant mouse granulocyte-macrophage colony-stimulating factor (GM-CSF) for 7 days.
# [2] = tested on: sepsis induced by intravenous LPS in dogs; assay: canine LPS-induced sepsis (systemic inflammation) model; format: in vivo, dog; conditions: LPS i.v.
# Procedure: After LPS administration, blood pressure was monitored every 1 hour, blood was collected at 0, 1, 3, 6, 12, 18, 24, 36, and 48 h, and the animals were sacrificed at 48 h to complete the experiment.
# The survival rate was examined by checking the number of beagle dogs that died for 48 hours in the two treatment groups in which sepsis was induced in Example <2-1>.
# Blood pressure was measured hourly for 48 hours in the two treatment groups in which sepsis was induced in Example <2-1>.
# Blood urea nitrogen (BUN) and creatinine tests were performed as renal function tests. Specifically, blood was collected hourly for 48 hours from the two treatment groups in which sepsis was induced in Example <2-1>, serum was separated, and then BUN and […] concentrations in the serum were measured.
# Blood was collected hourly for 48 hours from the two treatment groups in which sepsis was induced in Example <2-1>, serum was separated, and then the inflammatory cytokine IL-1β in the serum was measured.
# mBMDM [3] = assay: IL-1β ELISA in mBMDM activated with LPS+ATP or LPS+BzATP; format: cell-based, mouse; conditions: then 0, 25, 100 or 400 ng/ml TDCA, FIG. 2B
# Procedure: (§1) The bone marrow-derived macrophages of Example <1-1> were cultured in culture dishes at various densities and then collected (4×10^4, 5×10^5, 1×10^6 cells/well, 96-well, 24-well, and 12-well culture dishes, respectively). […] After the time expired, the supernatant was collected, stored at −80° C., and then subjected to ELISA analysis.
# mBMDM [4] = assay: qRT-PCR of inflammation-related factor transcription in LPS+BzATP-treated mBMDM; format: cell-based, mouse; conditions: 10 ng/ml LPS, 300 μM BzATP and 400 ng/ml TDCA simultaneously 1 hour, FIG. 1B
# Procedure: as §1, with “cells were” for “supernatant was”, “qRT-PCR” for “ELISA”
# [5] = phase 1 clinical trial: safety/tolerability and pharmacokinetics in healthy adult male volunteers; format: in vivo, human; conditions: healthy males
# Procedure: Forty healthy adult male volunteers in Korea were selected as subjects for the clinical trial. The clinical trial was conducted at Seoul National University Hospital (Seoul, Korea) and was targeted at people who met all of the selection criteria in [Table 1].
# A randomized, double-blind, standard treatment-based placebo-controlled trial group was assigned to evaluate drug safety/tolerability and pharmacokinetics (PK) in clinical trial subjects. As a therapeutic agent, NuSepin, an injectable clinical agent containing TDCA, was used.
# A screening test was performed on healthy male volunteers within 4 weeks (−28 d to −4 d) from the first administration date (1 d) of the study drug to select test subjects determined to be suitable for this clinical trial. […] In the morning on the study drug administration date (1 d), designated tests such as blood collection for pharmacokinetic analysis and safety evaluation were performed, and then the study drug or placebo was administered intravenously on an empty stomach. The test subjects were subjected to the clinical trial according to the set schedule and discharged from the hospital 1 day (2 d) after administration, and the subjects who completed all clinical trial schedules underwent a post-study visit between 4 d and 6 d.
# • Monitoring of adverse events such as subjective and objective symptoms • Physical examination • Vital signs • Electrocardiogram (12-Lead ECG) test • Clinical laboratory test • Local toxicity assessment • Continuous ECG and SpO2 monitoring
# Adverse events were described by dose group and treatment group based on severity and causal relationship with the stsudy drug, and the frequency and percentage of the number of test subjects with adverse events were compared and evaluated. Vital signs, electrocardiogram test, clinical laboratory tests, physical examination, monitoring of adverse events such as subjective and objective symptoms, continuous ECG and SpO2 monitoring, and the like were comprehensively reviewed, and statistical analysis was performed if necessary only on items determined to be clinically significant.
# Pharmacokinetic variables were obtained by a non-compartmental analysis method for subjects who completed this clinical trial using appropriate and validated pharmacokinetic software (for example, Phoenix WinNonlin® (Version 8.0 or higher, Pharsight, CA, USA)), and descriptive statistics (mean, standard deviation, and the like) were obtained for each dose group and treatment group.
# mBMDM [6] = assay: TNF-α ELISA in LPS-primed mBMDM; format: cell-based, mouse; conditions: 10 ng/ml LPS 3 hours, then 0, 25, 100, 400 ng/ml TDCA 1 hour, FIG. 1C
# Procedure: After the time expired, the supernatant was collected, stored at −80° C., and then subjected to ELISA analysis.
# [7] = single i.v. NuSepin 0.1-1.6 mg/kg or placebo
substance,measurement,setting,value
sodium taurodeoxycholate [TDCA],half-life of the drug,[1],approximately 1 hour
same,cAMP concentration in cells,mBMDM cells,recovered
same,survival rate,"[2]; TDCA i.v. 2, 1, 1 mg/kg at 12-hour intervals, 48 hours, half of placebo animals died, FIG. 3B",all animals administered with TDCA have survived until 48 hours
same,blood pressure (hypotensive shock),"[2]; TDCA i.v. 2, 1, 1 mg/kg, FIG. 3C",hypotensive shock tends to be inhibited
same,increase in level of BUN in the blood,"[2]; TDCA i.v. 2, 1, 1 mg/kg, FIG. 3D",suppressed
same,increase in level of creatinine in the blood,"[2]; TDCA i.v. 2, 1, 1 mg/kg, FIG. 3E",suppressed
same,IL-1β in serum,"[2]; TDCA i.v. 2, 1, 1 mg/kg, FIG. 3F",further inhibited than those in the placebo group
same,IL-8 in serum,"[2]; TDCA i.v. 2, 1, 1 mg/kg, FIG. 3G",further inhibited than those in the placebo group
same,concentration of IL-1β produced by inflammation activation,mBMDM [3],decreases in proportion to the amount of TDCA used for treatment
same,intracellular transcriptional expression of ASC,mBMDM [4],decreased
same,intracellular transcriptional expression of Caspase1,mBMDM [4],decreased
same,intracellular transcriptional expression of IL-1β,mBMDM [4],decreased
same,intracellular transcriptional expression of NLRP3,mBMDM [4],decreased
same,PK properties,"[5]; single i.v. 0.1, 0.2, 0.4, 0.8, 1.6 mg/kg",concentration dependent manner
same,drug-related side effects,[5]; [7],one has mild IMD (immunomodulatory drugs)-related side effects
same,severity and outcome of side effects,[5]; [7],all of the side effects are not severe and recover without treatment
same,clinical trial subjects with side effects,"[5]; single i.v. NuSepin 0.1-1.6 mg/kg or placebo, 40 subjects",three of the clinical trial subjects have side effects
same,TNF-α produced by LPS,mBMDM [6],decreased
